The values below come from ChEMBL document CHEMBL1177743, “Symbiopolyol, a VCAM-1 inhibitor from a symbiotic dinoflagellate of the jellyfish Mastigias papua” (J Nat Prod, 2010).

The test system of series [1] is HUVEC. The experiment in a line: Inhibition of VCAM1 expression in TNF-alpha-stimulated HUVEC pretreated 30 mins before TNFalpha challenge for 18 hrs by ELISA. Format: functional, cell-based. As to conditions: Homo sapiens. (In general: An ELISA detects its analyte on a solid surface through an enzyme-linked reagent.)
The target of series [2] is T1, Vascular cell adhesion protein 1 (Homo sapiens) (UniProt P19320).
T1 sequence (whole entry): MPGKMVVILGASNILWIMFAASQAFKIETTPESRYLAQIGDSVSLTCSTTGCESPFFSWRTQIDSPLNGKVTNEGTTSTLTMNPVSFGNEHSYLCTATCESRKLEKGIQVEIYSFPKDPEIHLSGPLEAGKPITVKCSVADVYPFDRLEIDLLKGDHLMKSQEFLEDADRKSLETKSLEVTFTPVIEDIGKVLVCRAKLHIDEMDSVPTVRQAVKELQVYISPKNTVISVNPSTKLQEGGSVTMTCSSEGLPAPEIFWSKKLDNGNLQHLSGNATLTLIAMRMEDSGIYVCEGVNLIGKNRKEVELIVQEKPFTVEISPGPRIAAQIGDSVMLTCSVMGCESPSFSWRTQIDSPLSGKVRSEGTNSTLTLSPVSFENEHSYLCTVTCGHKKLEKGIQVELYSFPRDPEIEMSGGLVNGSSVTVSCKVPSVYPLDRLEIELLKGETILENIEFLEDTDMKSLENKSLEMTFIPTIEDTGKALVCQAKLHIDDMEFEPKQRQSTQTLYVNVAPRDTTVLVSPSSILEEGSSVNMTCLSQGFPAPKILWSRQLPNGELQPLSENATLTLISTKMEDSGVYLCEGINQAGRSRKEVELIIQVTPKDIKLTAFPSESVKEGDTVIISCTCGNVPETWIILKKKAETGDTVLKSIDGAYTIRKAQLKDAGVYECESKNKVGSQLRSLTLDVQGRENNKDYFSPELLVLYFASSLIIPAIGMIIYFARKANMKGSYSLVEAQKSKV
The experiment in a line: Inhibition of VCAM1 in TNF-alpha/IL4-stimulated HUVEC assessed as inhibition of cell adhesion between HUVEC and Ramos cells at 8 uM after 20 hrs incubation relative to untreated control. Format: cell-based.

In series [3] the test system is HUVEC. The experiment in a line: Toxicity in HUVEC up to 12 uM. As to conditions: human. Format: cell-based.

As usually defined, the IC50 is the midpoint of a concentration-inhibition curve. One may read the inhibition as the relative decrease from the control value, in per cent. Consider `C=CCC/C=C/C=C/C=C/CC/C=C/[C@@H](O)[C@H](O)[C@@H]1O[C@@H]([C@H](O)[C@@H](O)C(=C)CC[C@@H](O)[C@H]2C[C@@H](O)[C@@H](O)[C@H]([C@@H](O)[C@H](O)/C=C(\C)CC[C@H](O)C[C@H](O)[C@H](O)C(C)C(O)C(O)C/C=C/CC(O)/C=C/CCCCCOS(=O)(=O)[O-])O2)C[C@@H](O)[C@H]1O.[Na+]` (stereo partly drawn) [SYMBIOPOLYOL], for which the IC50 with HUVEC [1] worked out at 6.62 µM. Moreover, in series [2], the inhibition was 77%. Moreover, the Activity entry in the series on HUVEC [3] was “Non-toxic”.
